Laboratory results: PMC10296036, “Inhibitory Potential of Synthetic Amino Acid Derivatives against Digestive Enzymes as Promising Hypoglycemic and Anti-Obesity Agents” (Biomolecules, 2023)
Several values for one entry are separate records, joined by “and”; a condition that tells them apart may be missing. Equal values may be shown once. Marks after values point to notes of the source that are not given here.

Columns and labels:
[1] = biological target: T1, porcine pancreatic α-amylase (Sus scrofa, UniProt P00690); test: Pancreatic α-amylase inhibition assay (I% and IC50); assay type: biochemical; conditions: for IC50: mean ± S.E.M., n = 3, starch substrate, 37 °C, pH 7.0
T1 construct: purchased Sigma-Aldrich
T1 sequence (P00690 16-511): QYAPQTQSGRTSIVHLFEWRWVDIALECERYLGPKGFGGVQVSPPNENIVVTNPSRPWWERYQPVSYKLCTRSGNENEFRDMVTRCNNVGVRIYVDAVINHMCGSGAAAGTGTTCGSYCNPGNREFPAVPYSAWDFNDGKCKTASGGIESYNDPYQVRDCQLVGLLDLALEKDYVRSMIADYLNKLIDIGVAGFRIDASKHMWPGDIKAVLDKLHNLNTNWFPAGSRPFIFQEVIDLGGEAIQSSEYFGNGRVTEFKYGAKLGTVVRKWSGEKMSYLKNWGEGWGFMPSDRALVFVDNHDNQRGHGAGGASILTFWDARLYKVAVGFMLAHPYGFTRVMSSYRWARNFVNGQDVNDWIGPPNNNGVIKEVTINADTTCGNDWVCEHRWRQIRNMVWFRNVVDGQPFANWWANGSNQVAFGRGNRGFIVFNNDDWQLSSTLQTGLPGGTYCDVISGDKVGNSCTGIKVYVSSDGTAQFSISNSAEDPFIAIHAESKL
Method: (§1) The pancreatic α-amylase inhibition assay was carried out according to Freitas et al. with some modifications. The porcine pancreatic α-amylase (1 mg/mL) was incubated in 50 mM Tris-HCl buffer (pH 7.0) containing 10 mM CaCl2 and 1% starch. […] Afterward, microplates were pre-incubated for 10 min in a water bath at 37 °C. […] The reaction was stopped using an ice bath. All reactions were carried out in triplicate.

[2] = biological target: T1, porcine pancreatic α-amylase; test: Kinetic parameters and Lineweaver-Burk analysis, pancreatic α-amylase; assay type: biochemical; conditions: for Vmax (pancreatic α-amylase in presence of inhibitor) / Slope (Lineweaver-Burk, pancreatic α-amylase): inhibitor concentration: acarbose 387, PPC80 730, PPC82 795, PPC84 870, PPC89 675, PPC101 532 µM; for Vmax (pancreatic α-amylase in presence of inhibitor): no inhibitor Vmax 100.70 ± 0.34; for Slope (Lineweaver-Burk, pancreatic α-amylase): no inhibitor slope 0.59; for Inhibition mechanism on pancreatic α-amylase: from Km, Vmax and Lineweaver-Burk plots
Method: as §1
(§2) Kinetic parameters were determined using the same experimental conditions as described above for each enzyme. […] The enzyme concentrations were maintained as described above. […] The absorbance values were converted into product concentration (µmol/L) using standard curves of glucose (α-amylase) and p-nitrophenol (pancreatic lipase and α-glucosidase). The value of the initial velocity (v0) of enzymatic reactions was estimated to create the “v0 versus substrate concentration” graph. Kinetic constants (Km and Vmax) and slope were calculated, and the inhibition model was verified using Lineweaver–Burk plots.

[3] = biological target: T2, porcine pancreatic lipase (Sus scrofa, UniProt P00591); test: Pancreatic lipase inhibition assay (I% and IC50); assay type: biochemical; conditions: for IC50: mean ± S.E.M., n = 3, substrate p-nitrophenol palmitate, 37 °C, pH 8.0; for Inhibitory action on pancreatic lipase (in words): tested concentration range
T2 construct: purchased Sigma-Aldrich
T2 sequence (P00591 1-450): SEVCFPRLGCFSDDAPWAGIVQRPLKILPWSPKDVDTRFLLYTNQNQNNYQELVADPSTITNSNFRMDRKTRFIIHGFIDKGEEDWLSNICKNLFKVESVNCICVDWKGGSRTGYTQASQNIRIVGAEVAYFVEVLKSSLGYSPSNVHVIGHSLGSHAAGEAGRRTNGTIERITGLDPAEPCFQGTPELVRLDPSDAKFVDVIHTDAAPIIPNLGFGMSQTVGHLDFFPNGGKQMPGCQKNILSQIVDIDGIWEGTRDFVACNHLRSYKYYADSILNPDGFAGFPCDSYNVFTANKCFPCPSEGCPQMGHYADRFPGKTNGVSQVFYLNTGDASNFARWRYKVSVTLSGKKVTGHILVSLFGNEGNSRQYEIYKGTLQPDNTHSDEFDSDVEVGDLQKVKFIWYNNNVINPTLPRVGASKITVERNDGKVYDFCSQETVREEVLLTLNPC
Method: (§3) The pancreatic lipase inhibition assay was performed according to Santos et al. with some modifications. The porcine pancreatic lipase (10 g/L) was incubated in 50 mmol/L Tris-HCl buffer (pH 8.0) containing 10 mM CaCl2 and 25 mM NaCl. The p-nitrophenol palmitate substrate (8 mM) was dissolved in 0.5% w/v Triton-X 100. […] All reactions were carried out in triplicate.

[4] = biological target: T2, porcine pancreatic lipase; test: Kinetic parameters and Lineweaver-Burk analysis, pancreatic lipase; assay type: biochemical; conditions: for Vmax (pancreatic lipase in presence of inhibitor) / Slope (Lineweaver-Burk, pancreatic lipase): inhibitor concentration: orlistat 101 µM, PPC80 146 µM, PPC82 159 µM, PPC84 174 µM; for Vmax (pancreatic lipase in presence of inhibitor): no inhibitor Vmax 68.65 ± 0.41; for Slope (Lineweaver-Burk, pancreatic lipase): no inhibitor slope 2.77; for Inhibition mechanism on pancreatic lipase: from Km, Vmax and Lineweaver-Burk plots
Method: as §3, §2

[5] = system: α-glucosidase; test: α-Glucosidase inhibition assay (I% and IC50); conditions: for Inhibitory action against α-glucosidase (in words): tested concentration range
[6] = system: α-glucosidase; test: Kinetic parameters and Lineweaver-Burk analysis, α-glucosidase; assay type: biochemical; conditions: for Inhibition mechanism on α-glucosidase: from Km, Vmax and Lineweaver-Burk plots; for Vmax (α-glucosidase in presence of inhibitor) / Slope (Lineweaver-Burk, α-glucosidase): inhibitor concentration: acarbose 387, PPC84 870, PPC89 675, PPC101 532 µM; for Vmax (α-glucosidase in presence of inhibitor): no inhibitor Vmax 62.42 ± 1.14; for Slope (Lineweaver-Burk, α-glucosidase): no inhibitor slope 2.93
Method: [20] with some modifications. […] The reaction was stopped in an ice bath. All enzyme reactions were carried out in triplicate. […] Kinetic parameters were determined using the same experimental conditions as described above for each enzyme. […] The enzyme concentrations were maintained as described above. […] The absorbance values were converted into product concentration (μmol/L) using standard curves of glucose (α-amylase) and p-nitrophenol (pancreatic lipase and α-glucosidase). The value of the initial velocity (v0) of enzymatic reactions was estimated to create the “v0 versus substrate concentration” graph. Kinetic constants (Km and Vmax) and slope were calculated, and the inhibition model was verified using Lineweaver-Burk plots.

[7] = biological target: T2, porcine pancreatic lipase; parameters: method as in PMID 12771334; conditions: 100 mg/mL; cited from earlier work

| Molecule | Vmax (pancreatic α-amylase in presence of inhibitor) [2] | Slope (Lineweaver-Burk, pancreatic α-amylase) [2] [min⁻¹] | Vmax (pancreatic lipase in presence of inhibitor) [4] | Slope (Lineweaver-Burk, pancreatic lipase) [4] [min⁻¹] | IC50 [3] [µM] | IC50 [1] [µM] | Inhibition mechanism on pancreatic lipase [4] | Inhibition mechanism on pancreatic α-amylase [2] | Inhibition mechanism on α-glucosidase [6] | Vmax (α-glucosidase in presence of inhibitor) [6] | Slope (Lineweaver-Burk, α-glucosidase) [6] [min⁻¹] | further results |
| --- | --- | --- | --- | --- | --- | --- | --- | --- | --- | --- | --- | --- |
| C[C@H]1O[C@H](O[C@H]2[C@H](O)[C@@H](O)[C@@H](O[C@H]3[C@H](O)[C@@H](O)C(O)O[C@@H]3CO)O[C@@H]2CO)[C@H](O)[C@@H](O)[C@@H]1N[C@H]1C=C(CO)[C@@H](O)[C@H](O)[C@H]1O (some centres unmarked) [Acarbose, acarbose, reference compound] | 100.30 ± 0.89 ^a µM/min | 0.66 | – | – | – | – | – | – | – | – | – | inhibition at 620 µM ([1]; 620 µM): ~86% |
| CCCCCCCCCCC[C@@H](C[C@@H]1OC(=O)[C@H]1CCCCCC)OC(=O)[C@H](CC(C)C)NC=O [Orlistat, orlistat, reference compound] | – | – | 68.34 ± 0.40 µM/min and 68.34 ± 0.40 ^a µM/min | 4.10 | – | – | – | – | – | – | – | inhibition at 807 µM ([3]; 807 µM, read-out: Inhibitory effect on pancreatic lipase activity): 60% |
| CCCCCCCCNC(=O)[C@@H](NC(=O)OC(C)(C)C)[C@@H](C)CC [PPC80] | 91.75 ± 0.48 µM/min | 0.89 | 68.82 ± 0.57 µM/min and 68.82 ± 0.57 ^a µM/min | 4.65 | 475 ± 8.25 | 276 ± 5.21 | competitive mechanism | non-competitive or mixed inhibition mechanism | – | – | – | inhibition at 584 µM ([3]; 584 µM, read-out: Inhibitory effect on pancreatic lipase activity): ~65%; inhibition at 730 µM ([1]; 730 µM): ~93%; Inhibitory action against α-glucosidase (in words) [5]: did not show inhibitory action |
| CCCCCCNC(=O)[C@@H](NC(=O)OC(C)(C)C)[C@@H](C)CC [PPC82] | 99.70 ± 1.20 ^a µM/min | 0.72 | 69.13 ± 0.57 µM/min and 69.13 ± 0.57 ^a µM/min | 5.79 | 167 ± 6.25 | 519 ± 20 | competitive mechanism | competitive-type inhibition mechanism | – | – | – | inhibition at 477 µM ([3]; 477 µM, read-out: Inhibitory effect on pancreatic lipase activity): ~86%; inhibition at 1590 µM ([1]; 1590 µM): ~94%; Inhibitory action against α-glucosidase (in words) [5]: did not show inhibitory action |
| CC[C@H](C)[C@H](NC(=O)OC(C)(C)C)C(=O)NCCCN [PPC84] | 94.35 ± 0.51 µM/min | 0.80 | 62.76 ± 0.3 µM/min and 62.76 ± 0.35 µM/min | 3.19 | 1020 ± 20.3 | 493 ± 11 | mixed or non-competitive inhibition mechanism | non-competitive or mixed inhibition mechanism | competitive inhibitors | 62.90 ± 0.60 µM/min and 62.90 ± 0.60 ^a µM/min | 4.29 | inhibition at 1392 µM ([3]; 1392 µM, read-out: Inhibitory effect on pancreatic lipase activity): ~62%; inhibition at 870 µM ([1]; 870 µM): ~74%; Inhibition of α-glucosidase ([5]; 435 µM): ~66% |
| CCCCCCCCCCNC(=O)[C@@H](NC(=O)OC(C)(C)C)[C@@H](C)CC [PPC89] | 99.73 ± 1.77 ^a µM/min | 0.76 | – | – | – | 171 ± 13.6 | – | competitive-type inhibition mechanism | competitive inhibitors | 62.30 ± 1.33 µM/min and 62.30 ± 1.33 ^a µM/min | 4.11 | Inhibitory action on pancreatic lipase (in words) [3]: did not show inhibitory action; Inhibitory effect on pancreatic α-amylase (in words) ([1]; 405 µM, compared with acarbose 620 µM): same inhibitory effect as acarbose; inhibition at 675 µM ([1]; 675 µM): ~90%; Inhibition of α-glucosidase ([5]; 674 µM): ~78% |
| CCCCCCCCCCCCNCCCCNC(=O)[C@@H](NC(=O)OC(C)(C)C)[C@@H](C)CC [PPC101] | 100.00 ± 1.55 ^a µM/min | 0.70 | – | – | – | 162 ± 1.73 | – | competitive-type inhibition mechanism | competitive inhibitors | 63.09 ± 1.45 µM/min and 63.09 ± 1.45 ^a µM/min | 4.94 | Inhibitory action on pancreatic lipase (in words) [3]: did not show inhibitory action; inhibition at 532 µM ([1]; 532 µM): ~86%; Inhibition of α-glucosidase ([5]; 67 µM): ~64%; IC50 ([5]; read-out: IC50 α-Glucosidase, mean ± S.E.M., n = 3, substrate p-nitrophenyl-α-D-glucopyranoside, 37 °C, pH 7.0): 51 ± 1.73 µM |
| Polylysine | – | – | – | – | – | – | – | – | – | – | – | Inhibition of porcine pancreatic lipase activity [7]: 80% |
